From ChEMBL document CHEMBL4052762, “Synthesis and biological evaluation of pyrrole-based chalcones as CYP1 enzyme inhibitors, for possible prevention of cancer and overcoming cisplatin resistance” (Bioorg Med Chem Lett, 2017)

Columns and labels:
[1] = biological target: Cytochrome P450 3A4 (Homo sapiens, UniProt P08684); assay: Inhibition of human CYP3A4 bound to yeast microsomal membrane using dibenzylfluorescein as substrate after 10 mins by fluorescence assay; type: ADME
[2] = biological target: T1, Cytochrome P450 1A1 (Homo sapiens, UniProt P04798); assay: Inhibition of human CYP1A1 bound to yeast microsomal membrane using 7-ethoxyresorufin as substrate after 10 mins by fluorescence assay
T1 sequence (P04798 whole entry): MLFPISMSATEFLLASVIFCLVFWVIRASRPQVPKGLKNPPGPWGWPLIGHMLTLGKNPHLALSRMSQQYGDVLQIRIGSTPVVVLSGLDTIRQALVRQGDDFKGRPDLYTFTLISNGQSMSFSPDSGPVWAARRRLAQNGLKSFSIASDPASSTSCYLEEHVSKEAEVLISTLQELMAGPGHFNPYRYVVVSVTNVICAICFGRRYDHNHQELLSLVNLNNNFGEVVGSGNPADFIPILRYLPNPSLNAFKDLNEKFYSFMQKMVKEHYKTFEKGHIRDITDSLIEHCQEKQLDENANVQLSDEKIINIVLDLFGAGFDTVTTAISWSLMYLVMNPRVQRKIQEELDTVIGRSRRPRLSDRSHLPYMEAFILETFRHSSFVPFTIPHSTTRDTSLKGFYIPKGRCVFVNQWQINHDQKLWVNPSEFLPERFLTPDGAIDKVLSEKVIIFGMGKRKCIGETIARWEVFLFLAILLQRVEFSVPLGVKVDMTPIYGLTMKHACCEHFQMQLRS

[3] = biological target: T2, Cytochrome P450 1B1 (Homo sapiens, UniProt Q16678); assay: Inhibition of human CYP1B1 bound to yeast microsomal membrane using 7-ethoxyresorufin as substrate after 10 mins by fluorescence assay
T2 sequence (Q16678 whole entry): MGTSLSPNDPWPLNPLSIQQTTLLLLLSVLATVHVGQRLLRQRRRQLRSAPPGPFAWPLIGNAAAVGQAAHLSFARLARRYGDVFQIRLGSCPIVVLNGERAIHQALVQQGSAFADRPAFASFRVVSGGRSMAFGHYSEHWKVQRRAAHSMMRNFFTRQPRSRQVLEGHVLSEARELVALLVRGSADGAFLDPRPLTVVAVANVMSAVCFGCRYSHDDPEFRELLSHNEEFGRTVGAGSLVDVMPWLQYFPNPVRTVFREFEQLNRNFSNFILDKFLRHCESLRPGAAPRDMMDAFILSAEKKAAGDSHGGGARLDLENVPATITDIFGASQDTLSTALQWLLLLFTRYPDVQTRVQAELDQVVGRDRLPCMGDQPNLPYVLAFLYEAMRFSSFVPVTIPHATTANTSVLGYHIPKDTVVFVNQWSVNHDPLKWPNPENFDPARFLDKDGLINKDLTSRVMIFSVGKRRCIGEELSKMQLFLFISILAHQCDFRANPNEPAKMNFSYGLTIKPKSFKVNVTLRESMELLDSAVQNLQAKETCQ

[4] = biological target: T3, Cytochrome P450 1A2 (Homo sapiens, UniProt P05177); assay: Inhibition of human CYP1A2 bound to yeast microsomal membrane using 3-cyano-7-ethoxycoumarin as substrate after 10 mins by fluorescence assay
T3 sequence (P05177 whole entry): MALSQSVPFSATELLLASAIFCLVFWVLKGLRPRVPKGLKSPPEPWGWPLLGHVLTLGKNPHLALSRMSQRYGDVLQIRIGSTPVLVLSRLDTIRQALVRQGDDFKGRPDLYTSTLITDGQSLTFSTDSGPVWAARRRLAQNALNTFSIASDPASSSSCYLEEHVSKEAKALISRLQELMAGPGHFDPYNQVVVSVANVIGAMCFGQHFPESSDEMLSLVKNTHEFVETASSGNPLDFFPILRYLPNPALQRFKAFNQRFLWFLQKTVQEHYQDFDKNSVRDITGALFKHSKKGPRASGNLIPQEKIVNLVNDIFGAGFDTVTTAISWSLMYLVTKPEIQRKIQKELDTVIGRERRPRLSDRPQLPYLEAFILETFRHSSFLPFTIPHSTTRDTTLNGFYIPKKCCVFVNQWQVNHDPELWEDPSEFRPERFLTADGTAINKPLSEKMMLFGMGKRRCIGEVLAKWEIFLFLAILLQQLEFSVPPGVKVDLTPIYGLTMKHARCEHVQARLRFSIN

[5] = biological target: Cytochrome P450 2C19 (Homo sapiens, UniProt P33261); assay: Inhibition of human CYP2C19 bound to yeast microsomal membrane using 3-cyano-7-ethoxycoumarin as substrate after 10 mins by fluorescence assay; type: ADME
[6] = biological target: Cytochrome P450 2C9 (Homo sapiens, UniProt P11712); assay: Inhibition of human CYP2C9 bound to yeast microsomal membrane using 3-cyano-7-ethoxycoumarin as substrate after 10 mins by fluorescence assay; type: ADME
[7] = biological target: Cytochrome P450 2D6 (Homo sapiens, UniProt P10635); assay: Inhibition of human CYP2D6 bound to yeast microsomal membrane using 7-ethoxy-methyloxy-3-cyanocoumarin as substrate after 10 mins by fluorescence assay; type: ADME
Cytochrome P450 2D6, sequence (P10635 whole entry): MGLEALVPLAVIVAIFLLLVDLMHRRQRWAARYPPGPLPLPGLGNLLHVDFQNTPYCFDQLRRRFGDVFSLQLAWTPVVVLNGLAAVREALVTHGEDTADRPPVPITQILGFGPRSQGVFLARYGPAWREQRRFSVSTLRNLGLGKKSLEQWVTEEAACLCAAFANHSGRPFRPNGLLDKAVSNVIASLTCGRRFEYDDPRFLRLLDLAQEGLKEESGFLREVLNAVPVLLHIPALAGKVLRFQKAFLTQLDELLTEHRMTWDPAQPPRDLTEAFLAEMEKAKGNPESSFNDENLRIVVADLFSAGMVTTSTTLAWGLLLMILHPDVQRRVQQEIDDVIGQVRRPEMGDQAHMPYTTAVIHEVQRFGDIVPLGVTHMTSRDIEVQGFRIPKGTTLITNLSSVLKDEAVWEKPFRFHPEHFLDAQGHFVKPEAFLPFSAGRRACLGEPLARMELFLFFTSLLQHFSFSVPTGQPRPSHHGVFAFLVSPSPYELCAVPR

Cytochrome P450 2C19, sequence (P33261 whole entry): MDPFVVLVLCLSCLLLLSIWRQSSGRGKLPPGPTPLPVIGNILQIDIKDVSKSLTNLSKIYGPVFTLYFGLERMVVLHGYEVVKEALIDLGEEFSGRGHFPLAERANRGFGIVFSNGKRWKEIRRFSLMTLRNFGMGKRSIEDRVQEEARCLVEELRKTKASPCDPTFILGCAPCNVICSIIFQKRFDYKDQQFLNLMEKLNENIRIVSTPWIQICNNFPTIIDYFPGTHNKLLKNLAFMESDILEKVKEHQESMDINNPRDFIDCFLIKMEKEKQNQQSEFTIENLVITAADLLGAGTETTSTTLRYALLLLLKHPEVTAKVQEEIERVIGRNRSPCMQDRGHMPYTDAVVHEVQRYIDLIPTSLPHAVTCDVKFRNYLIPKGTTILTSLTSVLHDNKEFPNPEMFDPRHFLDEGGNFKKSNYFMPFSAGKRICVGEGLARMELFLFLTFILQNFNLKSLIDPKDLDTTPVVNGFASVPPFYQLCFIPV
Cytochrome P450 2C9, sequence (P11712 whole entry): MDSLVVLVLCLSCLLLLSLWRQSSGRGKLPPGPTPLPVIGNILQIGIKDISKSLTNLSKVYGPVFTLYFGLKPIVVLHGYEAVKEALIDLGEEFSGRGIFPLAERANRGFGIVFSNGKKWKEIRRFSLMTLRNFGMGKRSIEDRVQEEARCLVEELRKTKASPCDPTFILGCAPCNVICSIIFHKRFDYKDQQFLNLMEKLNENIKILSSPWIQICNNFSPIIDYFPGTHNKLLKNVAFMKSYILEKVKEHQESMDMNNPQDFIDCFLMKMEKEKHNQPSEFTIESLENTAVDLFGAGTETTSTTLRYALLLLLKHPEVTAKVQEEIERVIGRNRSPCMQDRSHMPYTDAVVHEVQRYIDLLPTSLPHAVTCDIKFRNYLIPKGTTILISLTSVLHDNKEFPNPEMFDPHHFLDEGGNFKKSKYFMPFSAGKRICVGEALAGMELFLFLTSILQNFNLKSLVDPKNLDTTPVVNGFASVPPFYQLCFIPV
Cytochrome P450 3A4, sequence (P08684 whole entry): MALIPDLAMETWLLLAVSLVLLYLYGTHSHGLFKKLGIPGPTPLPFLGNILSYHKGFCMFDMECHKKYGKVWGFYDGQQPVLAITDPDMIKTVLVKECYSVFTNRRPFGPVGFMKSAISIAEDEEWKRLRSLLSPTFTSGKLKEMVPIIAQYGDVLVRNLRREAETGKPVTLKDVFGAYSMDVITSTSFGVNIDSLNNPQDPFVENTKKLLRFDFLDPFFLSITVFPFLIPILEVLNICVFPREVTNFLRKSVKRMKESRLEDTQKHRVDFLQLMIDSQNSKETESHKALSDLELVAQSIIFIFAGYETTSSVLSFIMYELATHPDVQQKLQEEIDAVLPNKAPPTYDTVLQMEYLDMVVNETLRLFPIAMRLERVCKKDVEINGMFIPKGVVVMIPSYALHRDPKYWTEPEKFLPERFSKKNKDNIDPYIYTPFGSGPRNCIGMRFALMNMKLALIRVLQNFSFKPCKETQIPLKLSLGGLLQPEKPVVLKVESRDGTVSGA

| SMILES | IC50 [1] [µM] | IC50 [2] [µM] | IC50 [3] [µM] | IC50 [4] [µM] | IC50 [5] [µM] | IC50 [6] [µM] | IC50 [7] [µM] |
| --- | --- | --- | --- | --- | --- | --- | --- |
| O=C(/C=C/c1cc([N+](=O)[O-])ccc1Cl)c1ccc[nH]1 | > 20 | > 20 | > 20 | 10.9 | > 20 | > 20 | 12 |
| CCc1ccc(/C=C/C(=O)c2ccc[nH]2)o1 | > 20 | > 20 | 9.2 | 2.5 | > 20 | > 20 | 17 |
| O=C(/C=C/c1ccccc1F)c1ccc[nH]1 | > 20 | > 20 | 2.7 | 2.2 | > 20 | > 20 | 16 |
| O=C(/C=C/c1ccc(Br)cc1)c1ccc[nH]1 | > 20 | > 20 | 8.5 | 13.2 | > 20 | > 20 | 18 |
| O=C(/C=C/c1cccc(Cl)c1)c1ccc[nH]1 | > 20 | 16 | 1.5 | 12 | > 20 | > 20 | 14 |
| COc1cccc(/C=C/C(=O)c2ccc[nH]2)c1 | > 20 | 6.2 | 5.2 | 1.5 | > 20 | > 20 | 11 |
| O=C(/C=C/c1ccc2c(c1)OCO2)c1ccc[nH]1 | > 20 | 5.8 | > 20 | 9.7 | > 20 | > 20 | 14 |
| O=C(/C=C/c1c2ccccc2cc2ccccc12)c1ccc[nH]1 | > 20 | > 20 | > 20 | > 20 | > 20 | > 20 | 12 |
| CN(C)c1ccc(/C=C/C(=O)c2ccc[nH]2)cc1 | > 20 | > 20 | > 20 | 12.5 | > 20 | > 20 | 13 |
| O=C(/C=C/C=C/c1ccccc1)c1ccc[nH]1 | > 20 | > 20 | > 20 | 10.5 | > 20 | > 20 | 12 |
| COc1ccc(/C=C/C=C/C(=O)c2ccc[nH]2)cc1 | > 20 | > 20 | > 20 | 13 | > 20 | > 20 | 18 |
| COc1cc(/C=C/C(=O)c2ccc[nH]2)cc(OC)c1OC | > 20 | > 20 | > 20 | 15 | > 20 | > 20 | 14 |
| COc1cccc(/C=C/C(=O)c2ccc[nH]2)c1OC | > 20 | 5.2 | > 20 | 9.2 | > 20 | > 20 | 16 |
| O=C(O)c1ccc(/C=C/C(=O)c2ccc[nH]2)cc1 | > 20 | > 20 | > 20 | > 20 | > 20 | > 20 | 18 |
| COc1cccc(OC)c1/C=C/C(=O)c1ccc[nH]1 | > 20 | 10.8 | > 20 | 10 | > 20 | > 20 | 18 |
| COc1ccc(/C=C/C(=O)c2ccc[nH]2)cc1Br | > 20 | > 20 | > 20 | 17 | > 20 | > 20 | 13 |
| COc1ccc(/C=C/C(=O)c2ccc[nH]2)c(OC)c1 | > 20 | 11.8 | > 20 | 10 | > 20 | > 20 | 11 |
| O=C(/C=C/c1cccc(Br)c1)c1ccc[nH]1 | > 20 | > 20 | 13 | > 20 | > 20 | > 20 | 14 |
| COc1cc(/C=C/C(=O)c2ccc[nH]2)cc(OC)c1 | > 20 | 6.1 | > 20 | 9 | > 20 | > 20 | 15 |
| COc1ccc(/C=C/C(=O)c2ccc[nH]2)cc1 | > 20 | > 20 | > 20 | 11.8 | > 20 | > 20 | 16 |
